Holding throughout (format): cell-based
The target of one test is T1, human TLR9 (Homo sapiens, UniProt Q9NR96).
T1 construct: host or cells: HEK-Blue cells
T1 sequence (Q9NR96 26-1032): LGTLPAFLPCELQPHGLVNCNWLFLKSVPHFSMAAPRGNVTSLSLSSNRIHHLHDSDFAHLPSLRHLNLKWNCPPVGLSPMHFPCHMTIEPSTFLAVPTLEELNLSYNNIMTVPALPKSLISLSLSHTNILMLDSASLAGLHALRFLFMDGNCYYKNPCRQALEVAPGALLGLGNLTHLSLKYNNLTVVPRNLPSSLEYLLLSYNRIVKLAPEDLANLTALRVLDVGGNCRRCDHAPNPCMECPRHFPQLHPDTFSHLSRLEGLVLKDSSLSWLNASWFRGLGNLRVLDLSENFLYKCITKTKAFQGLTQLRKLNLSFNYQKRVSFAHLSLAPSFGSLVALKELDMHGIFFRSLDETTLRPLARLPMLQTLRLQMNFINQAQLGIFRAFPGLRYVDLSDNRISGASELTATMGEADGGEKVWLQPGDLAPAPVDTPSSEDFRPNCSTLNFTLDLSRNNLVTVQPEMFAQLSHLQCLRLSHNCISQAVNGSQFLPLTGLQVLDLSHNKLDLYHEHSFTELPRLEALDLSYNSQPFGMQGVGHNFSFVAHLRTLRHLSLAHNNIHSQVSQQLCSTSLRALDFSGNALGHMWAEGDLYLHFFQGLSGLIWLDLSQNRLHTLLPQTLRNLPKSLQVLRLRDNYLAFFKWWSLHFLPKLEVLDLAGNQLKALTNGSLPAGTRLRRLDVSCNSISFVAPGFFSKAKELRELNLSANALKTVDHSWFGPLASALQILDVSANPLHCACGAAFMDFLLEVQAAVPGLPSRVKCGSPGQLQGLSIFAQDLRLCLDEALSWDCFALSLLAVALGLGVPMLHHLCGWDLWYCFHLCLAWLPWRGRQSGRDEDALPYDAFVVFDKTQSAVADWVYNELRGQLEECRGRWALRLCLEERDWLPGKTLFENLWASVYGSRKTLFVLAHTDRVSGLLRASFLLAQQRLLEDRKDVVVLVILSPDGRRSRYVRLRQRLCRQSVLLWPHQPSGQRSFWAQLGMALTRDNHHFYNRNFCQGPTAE
The test is described as follows: TLR9 inhibition reporter assay (HEK-Blue cells, SEAP reporter, ODN2006 stimulation). To be noted: HEK-Blue cells overexpressing human TLR9, SEAP reporter, ODN2006 5 nM. The essentials:
(§1)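 Ligand levels differed by receptor: TLR7 got gardiquimod at 7.5 μM, TLR8 got R848 at 15.9 μM, and TLR9 got ODN2006 at 5 nM, each added after a 30-min room-temperature compound exposure. Incubation lasted 22 h at 37° C before colorimetric SEAP detection.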
In general terms: In a reporter assay the amount or activity of a reporter protein is the signal.

The target in a further test is T2, human TLR8 (Homo sapiens, UniProt Q9NR97).
T2 construct: host or cells: HEK-Blue cells
T2 sequence (Q9NR97 27-1041): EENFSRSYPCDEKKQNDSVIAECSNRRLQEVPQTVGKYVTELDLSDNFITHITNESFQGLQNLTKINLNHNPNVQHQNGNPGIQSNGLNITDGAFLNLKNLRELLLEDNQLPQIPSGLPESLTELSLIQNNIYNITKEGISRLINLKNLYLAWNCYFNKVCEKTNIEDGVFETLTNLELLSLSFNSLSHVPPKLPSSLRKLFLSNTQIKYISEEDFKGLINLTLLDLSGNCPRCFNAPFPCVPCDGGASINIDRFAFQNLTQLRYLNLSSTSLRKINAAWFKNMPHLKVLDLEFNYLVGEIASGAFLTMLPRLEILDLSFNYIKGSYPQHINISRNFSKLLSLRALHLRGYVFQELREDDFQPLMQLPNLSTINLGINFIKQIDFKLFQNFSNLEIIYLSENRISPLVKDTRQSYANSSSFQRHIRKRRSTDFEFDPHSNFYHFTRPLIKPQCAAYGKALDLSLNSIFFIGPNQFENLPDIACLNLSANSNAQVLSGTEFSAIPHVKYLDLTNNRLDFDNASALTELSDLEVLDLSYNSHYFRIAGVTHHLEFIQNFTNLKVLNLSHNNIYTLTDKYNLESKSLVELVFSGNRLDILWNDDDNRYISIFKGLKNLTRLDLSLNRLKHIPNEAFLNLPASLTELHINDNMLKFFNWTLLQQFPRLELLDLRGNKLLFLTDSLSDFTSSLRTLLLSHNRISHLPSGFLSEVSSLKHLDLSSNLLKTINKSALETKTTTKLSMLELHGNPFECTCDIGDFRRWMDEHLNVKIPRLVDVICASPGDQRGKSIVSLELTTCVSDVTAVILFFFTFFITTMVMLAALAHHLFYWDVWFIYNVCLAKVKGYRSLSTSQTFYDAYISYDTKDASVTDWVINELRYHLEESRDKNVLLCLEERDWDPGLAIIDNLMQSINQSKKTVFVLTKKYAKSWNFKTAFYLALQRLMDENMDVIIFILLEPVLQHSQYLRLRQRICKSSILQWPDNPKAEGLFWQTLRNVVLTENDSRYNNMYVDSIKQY
Briefly: TLR8 inhibition reporter assay (HEK-Blue cells, SEAP reporter, R848 stimulation). To be noted: HEK-Blue cells overexpressing human TLR8, SEAP reporter, R848 15.9 μM. The method in brief:
as §1

The target of a further test is T3, human TLR7 (Homo sapiens, UniProt Q9NYK1).
T3 construct: host or cells: HEK-Blue cells
T3 sequence (Q9NYK1 27-1049): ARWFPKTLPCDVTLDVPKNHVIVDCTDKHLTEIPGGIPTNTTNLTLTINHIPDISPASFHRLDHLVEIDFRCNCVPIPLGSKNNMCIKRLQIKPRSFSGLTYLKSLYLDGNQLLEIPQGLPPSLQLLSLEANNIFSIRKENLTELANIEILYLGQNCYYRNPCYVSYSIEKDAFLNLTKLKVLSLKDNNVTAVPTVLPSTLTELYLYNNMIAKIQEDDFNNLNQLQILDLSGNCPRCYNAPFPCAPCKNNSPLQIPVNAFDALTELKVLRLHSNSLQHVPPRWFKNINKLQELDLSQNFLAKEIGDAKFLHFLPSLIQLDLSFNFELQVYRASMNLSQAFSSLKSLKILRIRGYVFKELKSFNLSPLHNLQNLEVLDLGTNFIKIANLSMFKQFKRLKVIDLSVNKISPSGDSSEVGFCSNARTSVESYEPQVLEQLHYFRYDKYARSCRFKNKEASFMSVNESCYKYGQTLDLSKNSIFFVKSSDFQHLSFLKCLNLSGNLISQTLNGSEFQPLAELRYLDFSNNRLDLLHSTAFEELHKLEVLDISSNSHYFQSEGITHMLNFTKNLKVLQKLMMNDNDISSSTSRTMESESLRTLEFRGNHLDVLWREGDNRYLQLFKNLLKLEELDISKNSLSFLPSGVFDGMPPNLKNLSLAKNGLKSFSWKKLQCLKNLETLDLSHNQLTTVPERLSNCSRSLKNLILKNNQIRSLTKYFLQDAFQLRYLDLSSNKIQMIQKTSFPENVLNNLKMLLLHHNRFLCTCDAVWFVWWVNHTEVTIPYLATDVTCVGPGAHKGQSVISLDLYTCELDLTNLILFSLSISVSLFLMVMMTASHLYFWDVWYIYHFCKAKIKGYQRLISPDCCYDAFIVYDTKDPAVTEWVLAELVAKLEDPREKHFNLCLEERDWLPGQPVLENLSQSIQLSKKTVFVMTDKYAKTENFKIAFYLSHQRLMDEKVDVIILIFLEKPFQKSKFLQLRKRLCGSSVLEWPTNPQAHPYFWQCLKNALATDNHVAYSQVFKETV
The test is described as follows: TLR7 inhibition reporter assay (HEK-Blue cells, SEAP reporter, gardiquimod stimulation). To be noted: HEK-Blue cells overexpressing human TLR7, SEAP reporter, gardiquimod 7.5 μM. The method in brief: as §1

`Cc1cc(-c2[nH]nc(C3CCC(N(C)CC(=O)N(C)C)CC3)c2C(C)C)cn2ncnc12` (single isomer, unassigned) [compound 299]: the values for the IC50 at human TLR9, against human TLR8 and on human TLR7 were 12700 nM, 0.72 nM and 1.42 nM, respectively.

For `Cc1cc(-c2[nH]nc(-c3nc4c(s3)CN(CC(=O)N(C)C)CC4)c2C(C)C)cn2ncnc12` [Example 275], the IC50 – broadly, the concentration that gives 50% inhibition – against human TLR9 was over 50000 nM; at human TLR8, 515 nM; at human TLR7, 413 nM.

As for `CNC1CCC(NC(=O)c2n[nH]c(-c3cc(C)c4ncnn4c3)c2C(C)C)CC1` (stereo not drawn) [Example 130], the IC50 at human TLR9 came to 11500 nM; at human TLR8, 2.42 nM; against human TLR7, 0.45 nM.

In the case of `COc1c(C)c(-c2[nH]nc(-c3ccc(C4CCN(CC5CCOCC5)CC4)cn3)c2C(C)C)cn2ncnc12` [Example 388], the IC50 was 16100 nM against human TLR9, 37.4 nM against human TLR8 and 22.4 nM against human TLR7.

For `Cc1cc(-c2[nH]nc(C3CCC(N(C)CC(=O)N(C)C)CC3)c2C(C)C)cn2ncnc12` (stereo not drawn) [Example 298, 2-((4-(4-isopropyl-5-(8-methyl-[1,2,4]triazolo[1,5-a]pyridin-6-yl)-1H-pyrazol-3-yl)cyclohexyl)(methyl)amino)-N,N-dimethylacetamide], the IC50 was determined as 7410 nM at human TLR9, 0.43 nM at human TLR8 and 1.56 nM against human TLR7.

On to `COCCN1CCc2nc(-c3n[nH]c(-c4cc(C)c5ncnn5c4)c3C(C)C)sc2C1` [Example 266], for which the IC50 on human TLR9 was over 50000 nM; against human TLR8, 60.2 nM; on human TLR7, 119 nM.

Regarding `Cc1cc(-c2[nH]nc(C(=O)NC3CCN(CC4CCOCC4)CC3)c2C(C)C)cn2ncnc12` [Example 77], the half-inhibitory concentration (IC50) is 3270 nM against human TLR9, 21.5 nM on human TLR8 and 2.03 nM at human TLR7.

In the case of `Cc1cc(-c2[nH]nc(-c3nc4c(s3)CN(C(=O)CN(C)C)CC4)c2C(C)C)cn2ncnc12` [Example 270], the IC50 amounted to 3460 nM at human TLR9, 14 nM on human TLR8 and 8.99 nM against human TLR7.

Turning to `CCC(CC)CN[C@H]1CC[C@@H](NC(=O)c2n[nH]c(-c3cc(C)c4ncnn4c3)c2C(C)C)CC1` [Example 101], the IC50 against human TLR9 was 4790 nM; at human TLR8, 23 nM; at human TLR7, 3.68 nM.

Consider `Cc1cc(-c2[nH]nc(-c3nc4c(s3)CN(C)CC4)c2C(C)C)cn2ncnc12` [Example 256], for which the IC50 stood at 16900 nM on human TLR9, 31.3 nM against human TLR8 and 34.3 nM against human TLR7.

For `Cc1cc(-c2[nH]nc(C3CCC(N4CCN(C)CC4)CC3)c2C(C)C)cn2ncnc12` (single isomer, unassigned) [Example 286], the IC50 is over 50000 nM against human TLR9, 14.6 nM against human TLR8 and 25.6 nM against human TLR7.

With `CCN(CCC#N)C(=O)c1n[nH]c(-c2cc(C)c3ncnn3c2)c1C(C)C` [Example 20], the figures for the IC50 against human TLR9, at human TLR8 and against human TLR7 were 16100 nM, 8.06 nM and 3.69 nM, respectively.

As for `Cc1cc(-c2[nH]nc(C(=O)NC3CCOCC3)c2C(C)C)cn2ncnc12` [Example 28], the IC50 against human TLR9 was 645 nM; at human TLR8 it was 265 nM; against human TLR7, 39 nM.

Turning to `Cc1cc(-c2[nH]nc(C(=O)NC3CCN(CC4CCOC4)CC3)c2C(C)C)cn2ncnc12` (stereo not drawn) [Example 72], the IC50 worked out at 7220 nM against human TLR9, 4.75 nM against human TLR8 and 1.23 nM against human TLR7.

For `Cc1cc(-c2cc(C(=O)NC3CCN(C(C)C)CC3)n[nH]2)cn2ncnc12` [Example 178, N-(1-isopropylpiperidin-4-yl)-5-(8-methyl-[1,2,4]triazolo[1,5-a]pyridin-6-yl)-1H-pyrazole-3-carboxamide], the IC50 against human TLR9 was found to be 6710 nM; on human TLR8 it was 2.44 nM; at human TLR7 it was 1.69 nM.

Consider `Cc1cc(-c2[nH]nc(-c3ccc(NC(C)C)cc3)c2C(C)C)cn2ncnc12` [Example 244], for which the IC50 at human TLR9 amounted to 25300 nM; on human TLR8, 17.5 nM; at human TLR7 it was 44 nM.

Regarding `Cc1cc(-c2[nH]nc(-c3ccc(C4CN(C)C4)cc3)c2C(C)C)cn2ncnc12` [Example 324, 6-(4-isopropyl-3-(4-(1-methylazetidin-3-yl)phenyl)-1H-pyrazol-5-yl)-8-methyl-[1,2,4]triazolo[1,5-a]pyridine], the figures for the IC50 against human TLR9, against human TLR8 and against human TLR7 were 6240 nM, 2.26 nM and 6.96 nM, respectively.

With `Cc1cc(-c2[nH]nc(C(=O)NCCc3ccccn3)c2C(C)C)cn2ncnc12` [Example 4], the results for the IC50 on human TLR9, on human TLR8 and on human TLR7 were 287 nM, 33.9 nM and 5.52 nM, respectively.

As to `Cc1cc(-c2[nH]nc(C(=O)N3CCNCC3)c2C(C)C)cn2ncnc12` [Example 57], the IC50 against human TLR9 was 23100 nM; against human TLR8, 1.34 nM; on human TLR7, 4.24 nM.
